“And” between values parts separate entries of the source, which are not always exact repeats. Equal entries are not always repeated.
What was measured:
[1] = calibration standards, assigned values, no reference given; cited from earlier work
[2] = calibration standards, assigned values, no reference given; cited from earlier work; remark: listed apart in the source
U87MG glioblastoma cells = assay: Antiproliferative activity (MTS), U87MG; format: cell-based, human; details: Homo sapiens, U-87 MG; MTS assay
Procedure: (§1) These cell lines were characterized by different mutation profiles, the main one being the variable status of the p53 protein. In detail, U87MG cells have a wild-type p53 protein, while astrocytoma and the rest of GBM cells harbor mutated p53 protein. Additional assays were performed on MCF7 breast cancer and AsPC-1 pancreatic cancer cells. The wide range of tested lines was aimed at screening the anticancer potential of the tested compounds. The first represents one of the most common and the second one of the most aggressive cancers in the world. Comparing the activity of compounds on GBM cells to other types of cancer may reveal their selectivity and usefulness in targeted therapies. The cytotoxicity of the compounds on normal human astrocytes (NHA) and Feline catus astrocyte (PG-4) was determined. Tests on normal lines serve to verify the potential toxicity of the tested compounds on healthy cells. Due to the targeting of CNS tumors, astrocytes were selected as normal lines.
(§2) The detailed procedure is presented in previous publications.[53] […] Cells were cultured in appropriate media, supplemented with FBS, antibiotics, and other supplements, and incubated at 37 °C with 5% CO2. […] Cell viability was assessed using the MTS assay, and the inhibitory concentration (IC50) was calculated using GraphPad Prism 8.0. Each compound was tested in triplicate across multiple experiments.
Supplementary materials - Biological research
B) U87MG glioblastoma multiforme line.
and U87MG glioblastoma multiforme line for C) PP 3; D) PP 6; E) PP 8; F) PP 10; G) PP 11; H) PP

MCF7 breast cancer cells = assay: Antiproliferative activity (MTS), MCF7; format: cell-based, human; details: Homo sapiens, MCF7; MTS assay, 72 h
Procedure: as §1, §2

[3] = Metabolic stability in mouse liver microsomes; format: in vitro ADME; details: MLMs, 120 min
From the text: Moving on to the next parameter, which is metabolism, we determined metabolic stability, using mouse liver microsomes (MLMs). […]
Main metabolic pathways are marked in red.

[4] = system: AsPC-1 pancreatic cancer cells; assay: Antiproliferative activity (MTS), AsPC-1; format: cell-based, human; details: Homo sapiens, ASPC1; MTS assay, 72 h
Procedure: as §1, with “The chosen group of ligands was further examined for their ability to inhibit proliferation across multiple cancer cell lines related to the CNS system (1321N1, U87MG, LN-229, and U-251). These” for “These”
(§3) The detailed procedure is presented in previous publications.[53] Briefly, the study utilized various human cancer and normal cell lines, including LN-229 (glioblastoma), MCF7 (breast carcinoma), HepG2 (hepatoma), U-251 (glioblastoma), U87MG (glioblastoma), AsPC-1 (pancreatic adenocarcinoma), and NHA (normal human astrocytes). Cells were cultured in appropriate media, supplemented with FBS, antibiotics, and other supplements, and incubated at 37 °C with 5% CO2. Compounds were dissolved in DMSO, prepared at various concentrations (1–25 μM), and applied to the cells for 72 h. Cell viability was assessed using the MTS assay, and the inhibitory concentration (IC50) was calculated using GraphPad Prism 8.0. Each compound was tested in triplicate across multiple experiments.

[5] = Lipophilicity, chromatographic hydrophobicity index on C18 (Valko protocol); format: physicochemical
Procedure: (§4) Lipophilicity and affinity for phospholipids for each investigated molecule were assessed. Additionally, selected compounds with the highest biological activities have been characterized by their affinity plasma proteins. All experiments were performed using protocols developed by Valko.[35] These methods facilitated the calculation of chromatographic hydrophobicity indices (CHI) and plasma protein binding percentages (%PPB) in a biochromatographic experiment, with results compared to the reference. A detailed description of the experiments is provided in the Supporting Information (SI), along with the raw data. […] Although high lipophilicity may limit the medical use of the analyzed compounds since they may tend to accumulate excessively in the human body, it is remarkable that several clinically used drugs also have high lipophilicity. […] (Table 5).
(§5) The detailed procedure is presented in previous publications.[53] High-performance liquid chromatography (HPLC) analyses were conducted using the Prominence-1 LC-2030C 3D system (Shimadzu) with a DAD detector, employing three different chromatographic columns with specific stationary phases and mobile phases. The analysis was performed at 30 °C with a flow rate of 1.5 mL/min for IAM and C18 columns, and 0.9 mL/min for the Chiralpak column. Calibration standards for the columns were sourced from various suppliers and dissolved in dimethyl sulfoxide. Detection occurred in the UV range (190–300 nm) with a 5 μL injection volume. Each compound was analyzed in triplicate. Retention times for the tested compounds and calibration standards are provided in the Supporting Information (Tables S1 and S2).

[6] = system: normal human astrocytes (NHA); assay: Cytotoxicity (MTS), normal human astrocytes; format: cell-based; details: 72 h, normal human astrocytes, MTS assay
Procedure: as §1, with “The chosen group of ligands was further examined for their ability to inhibit proliferation across multiple cancer cell lines related to the CNS system (1321N1, U87MG, LN-229, and U-251). These” for “These”
as §3

1321N1 astrocytoma cells = assay: Antiproliferative activity (MTS), 1321N1; format: cell-based, human; details: Homo sapiens, 1321-N1; MTS assay
Procedure: as §1, §2
Supplementary materials - Biological research […]

[7] = Affinity to phospholipids, CHI IAM (Valko protocol); format: physicochemical; details: IAM column
Procedure: as §4, §5

[8] = molecular target: T1, human serum albumin (HSA) (Homo sapiens, UniProt P02768); assay: HSA binding by biochromatography (HSA column); format: in vitro ADME; details: HSA column
T1 construct: purchased
Procedure: as §4, §5

5-HT6 = molecular target: T2, 5-HT6 (Homo sapiens, UniProt P50406); assay: Radioligand binding assay, 5-HT6 ([3H]-LSD); details: HEK293 cell line with human 5-HT6R; 2 nM [3H]-LSD
T2 construct: expressed in transfected cells; host or cells: HEK293
Procedure: Ligand affinity for 5-HT6 receptors was subsequently tested with a radioligand binding assay, using the HEK293 cell line with human 5-HT6R, aiming to select compounds with the strongest affinity. Three compounds belonging to 2-naphthalenesulfonamide derivatives of 3,4-dihydroquinazolin-2-amines were obtained (Table 1).
The detailed procedure is presented in previous publications.[53] Assays were performed by incubating for 1 h at 37 °C (room temperature for 5-HT1A) in 200 μL volumes on 96-well plates. The reaction was terminated by rapid filtration using Unifilter plates, and radioactivity on the filters was measured with a PerkinElmer Microbeta plate reader. Radioligands used were:
Eight concentrations (10^–4 to 10^–11 M) were tested in triplicate for each compound. Inhibition constants (Ki) were calculated using the Cheng–Prusoff equation.[54] The results are expressed as the means of at least two independent experiments.

[9] = system: LN-229 glioblastoma cells; assay: Antiproliferative activity (MTS), LN-229; format: cell-based, human; details: Homo sapiens, LN-229; MTS assay, 72 h
Procedure: as §1, §2

U-251 glioblastoma cells = assay: Antiproliferative activity (MTS), U-251; format: cell-based, human; details: Homo sapiens, U-251; MTS assay, 72 h
Procedure: as §1, §2

[10] = system: HSA and AGP in a ratio 24:1; details: human
HSA and AGP (24:1) = assay: in vitro; details: human, plasma

T1 sequence (P02768 25-609): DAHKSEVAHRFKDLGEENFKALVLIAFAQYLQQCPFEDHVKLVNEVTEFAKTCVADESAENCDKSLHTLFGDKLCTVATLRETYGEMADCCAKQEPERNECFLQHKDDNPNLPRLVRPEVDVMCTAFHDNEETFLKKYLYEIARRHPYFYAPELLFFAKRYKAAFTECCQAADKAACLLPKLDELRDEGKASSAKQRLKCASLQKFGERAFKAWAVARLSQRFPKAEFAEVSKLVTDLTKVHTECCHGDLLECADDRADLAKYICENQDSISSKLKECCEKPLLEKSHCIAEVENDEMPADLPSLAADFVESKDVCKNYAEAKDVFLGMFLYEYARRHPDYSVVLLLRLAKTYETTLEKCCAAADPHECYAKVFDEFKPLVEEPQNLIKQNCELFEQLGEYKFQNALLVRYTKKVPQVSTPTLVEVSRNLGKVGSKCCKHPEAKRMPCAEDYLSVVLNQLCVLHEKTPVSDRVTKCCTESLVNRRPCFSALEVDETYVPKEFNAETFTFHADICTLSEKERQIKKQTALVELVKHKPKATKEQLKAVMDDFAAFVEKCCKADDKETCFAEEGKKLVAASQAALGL
T2 sequence (P50406 whole entry): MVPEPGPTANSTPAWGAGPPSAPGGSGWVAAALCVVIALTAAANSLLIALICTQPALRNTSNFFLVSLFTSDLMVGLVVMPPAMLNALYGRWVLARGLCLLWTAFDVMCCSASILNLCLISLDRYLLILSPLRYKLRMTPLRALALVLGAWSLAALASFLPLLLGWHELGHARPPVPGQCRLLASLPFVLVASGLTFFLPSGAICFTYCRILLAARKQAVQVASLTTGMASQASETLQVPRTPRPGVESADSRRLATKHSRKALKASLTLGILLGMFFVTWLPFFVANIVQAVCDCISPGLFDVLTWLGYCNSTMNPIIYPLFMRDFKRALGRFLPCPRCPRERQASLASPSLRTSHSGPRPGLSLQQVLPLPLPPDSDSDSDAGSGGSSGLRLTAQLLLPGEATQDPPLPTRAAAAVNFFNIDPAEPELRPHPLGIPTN

For `CC(=O)c1ccccc1` [Acetophenone], the “CHI C18 at pH 2.6 of the calibration set” value [1] is listed as 64.1 and the “CHI IAM of the calibration set” value [2] is listed as 17.2.

For `c1ccc2[nH]cnc2c1` [Benzimidazole], the “CHI C18 at pH 2.6 of the calibration set” value [1] is listed as 6.3.

For `CCCC(=O)c1ccccc1` [Butyrophenone], the “CHI C18 at pH 2.6 of the calibration set” value [1] is listed as 87.3 and the “CHI IAM of the calibration set” value [2] is listed as 32.

In the case of `COc1cc2c(c(OC)c1OC)-c1ccc(OC)c(=O)cc1[C@@H](NC(C)=O)CC2` [Colichicine], the “CHI C18 at pH 2.6 of the calibration set” value [1] is given as 43.9.

For `c1ccc2[nH]ccc2c1` [Indole], the “CHI C18 at pH 2.6 of the calibration set” value [1] is given as 72.1.

With `CC1NC(NCCCCCCNS(=O)(=O)c2cccc3ccccc23)=Nc2cccc(F)c21` (stereo not shown) [PP 11, N-{6-[(5-Fluoro-4-methyl-3,4-dihydroquinazolin-2-yl)amino]hexyl}naphthalene-1-sulfonamide] the IC50 (U87MG glioblastoma cells) was 8.5 ± 0.7 µM, the IC50 (MCF7 breast cancer cells) was 9.1 ± 0.8 µM and the main metabolic pathway [3] was “double hydroxylation and double bond reduction”. The “metabolic stability, % of remaining” value [3] was 74.22%, the IC50 [4] was 13.8 ± 0.3 µM and the “CHI C18 pH 2.6” value ([5]; pH 2.6) was 103.4. For the same compound, the “CHI C18 pH 7.4” value ([5]; pH 7.4) was 103.1, the “CHI C18 pH 10.5” value ([5]; pH 10.5) was 93.1 and the IC50 ([6]; Homo sapiens, Astrocyte) was 4.5 µM. For the same compound, the IC50 [6] was 4.4 ± 1.3 µM, the IC50 (1321N1 astrocytoma cells) was 5.7 ± 0.1 µM and the “CHI IAM” value [7] was 60.1. For the same compound, the “%HSA” value [8] was 99.2%, the logKHSA [8] was 1.75 and 1.8 and the Ki (5-HT6) was 0.222 ± 0.056 µM. The IC50 [9] was over 25 µM and the IC50 (U-251 glioblastoma cells) was 12.2 ± 0.3 µM.

In the case of `CCC(=O)c1ccccc1` [Propiophenone], the “CHI C18 at pH 2.6 of the calibration set” value [1] is given as 77.4 and the “CHI IAM of the calibration set” value [2] is given as 25.9.

In the case of `Cn1c(=O)c2[nH]cnc2n(C)c1=O` [Theophylline], the “CHI C18 at pH 2.6 of the calibration set” value [1] is listed as 17.9.

For `CCCCC(=O)c1ccccc1` [Valerophenone], the “CHI C18 at pH 2.6 of the calibration set” value [1] is listed as 96.4 and the “CHI IAM of the calibration set” value [2] is listed as 37.3.

With `CC(=O)CC(c1ccccc1)c1c(O)c2ccccc2oc1=O` (stereo not shown) [Warfarin] the “PPB kD” value [10] was 9.5 µM and the fraction unbound (HSA and AGP (24:1)) was 0.015.

From publication PMC11866022, “Long-Chain Cyclic Arylguanidines as Multifunctional Serotonin Receptor Ligands with Antiproliferative Activity” (ACS Omega, 2025)
